“And” between values parts separate entries of the source, which are not always exact repeats. Equal values may be shown once.
Experiment: xn = mol fraction of the nth substance listed

CCCNCCC + CCC(C)O
303.15 K, 101 kPa
Details	viscosity [mPa·s]
x1 = 0.009464	2.442
x1 = 0.02067	2.411
x1 = 0.03223	2.381
x1 = 0.04172	2.358
x1 = 0.04996	2.336
x1 = 0.05928	2.313
x1 = 0.07049	2.286
x1 = 0.08687	2.251
x1 = 0.09038	2.238

O=C(C=Cc1ccccc1)c1ccccc1 + CCO
viscosity [mPa·s], 101 kPa
Details	x1 = 0.000144	x1 = 0.000288	x1 = 0.0005755	x1 = 0.00115	x1 = 0.002298	x1 = 0.004586
298.15 K	1.102	1.141	1.216	1.256	1.283	1.356
303.15 K	1.01	1.049	1.115	1.156	1.181	1.255
308.15 K	0.9181	0.9561	1.014	1.056	1.079	1.154

c1cscn1 + C1CCCCC1
298.15 K, 101 kPa
Details	viscosity [mPa·s]
x1 = 0.1468	0.8439
x1 = 0.2448	0.7891
x1 = 0.4908	0.8119
x1 = 0.7468	0.8753
x1 = 0.8357	0.904
x1 = 0.8841	0.928
x1 = 0.9385	0.958

CCNC(C)=O + O
298.16 K, 101 kPa
Details	viscosity [mPa·s]
x2 = 0.0826	6.11
x2 = 0.1593	6.33
x2 = 0.2575	6.67
x2 = 0.3475	6.96
x2 = 0.427	7.14
x2 = 0.4728	7.18
x2 = 0.5438	7.12
x2 = 0.585	6.98
x2 = 0.7047	6.14
x2 = 0.7459	5.72

[Na+].[OH-] + O
Details	viscosity
293.15 K, 101.33 kPa, x2 = 0.67	96.16 mPa·s
293.15 K, 101.33 kPa, x2 = 0.8	22.24 mPa·s
293.15 K, 101.33 kPa, x2 = 0.83	18.37 mPa·s
293.15 K, 101.33 kPa, x2 = 0.85	9.529 mPa·s
293.15 K, 101.33 kPa, x2 = 0.86	8.225 mPa·s
293.15 K, 101.33 kPa, x2 = 0.89	6.356 mPa·s
293.15 K, 101.33 kPa, x2 = 0.9	4.63 mPa·s
323.15 K, 101 kPa, x1 = 0.009	0.609 mPa·s
323.15 K, 101 kPa, x1 = 0.026	0.745 mPa·s
323.15 K, 101 kPa, x1 = 0.05	1.02 mPa·s
323.15 K, 101 kPa, x1 = 0.1	1.88 mPa·s and 3.28 mPa·s
323.15 K, 101 kPa, x1 = 0.18	5.04 mPa·s
323.15 K, 101 kPa, x1 = 0.22	7.88 mPa·s
323.15 K, 101 kPa, x1 = 0.3	10.9 mPa·s

CCOC(C)(C)C + CCCCOCCO
viscosity [mPa·s], 101 kPa
Details	293.15 K	298.15 K	303.15 K
x1 = 0.0499	2.901	2.558	2.239
x1 = 0.1	2.603	2.314	2.038
x1 = 0.1511	2.336	2.092	1.85
x1 = 0.2007	2.107	1.899	1.687
x1 = 0.2489	1.91	1.731	1.545
x1 = 0.2999	1.725	1.573	1.412
x1 = 0.3421	1.589	1.455	1.312
x1 = 0.4018	1.417	1.305	1.186
x1 = 0.45	1.296	1.198	1.094
x1 = 0.5002	1.183	1.097	1.007
x1 = 0.5521	1.079	1.004	0.925
x1 = 0.5998	0.993	0.926	0.857
x1 = 0.6538	0.906	0.847	0.786
x1 = 0.6987	0.84	0.788	0.734
x1 = 0.7501	0.773	0.727	0.679
x1 = 0.8	0.714	0.673	0.632
x1 = 0.8492	0.661	0.626	0.59
x1 = 0.8997	0.612	0.581	0.55
x1 = 0.9493	0.57	0.541	0.514

CCOC(=O)c1ccccc1 + COCCOCCOC
viscosity [mPa·s], 101.33 kPa
Details	x2 = 0.1021	x2 = 0.2028	x2 = 0.3004	x2 = 0.4044	x2 = 0.5041	x2 = 0.6032	x2 = 0.7035	x2 = 0.8017	x2 = 0.9022
298.15 K	1.805	1.694	1.59	1.485	1.389	1.301	1.216	1.134	1.056
303.15 K	1.629	1.533	1.442	1.35	1.266	1.189	1.111	1.039	0.967
308.15 K	1.476	1.39	1.311	1.231	1.157	1.088	1.02	0.957	0.895
313.15 K	1.342	1.268	1.198	1.126	1.062	1	0.94	0.883	0.829
318.15 K	1.228	1.161	1.098	1.035	0.976	0.922	0.868	0.818	0.77

CCOC(=O)c1ccccc1 + CCCCO
viscosity [mPa·s], 101.3 kPa
Details	x1 = 0.0664	x1 = 0.1379	x1 = 0.2152	x1 = 0.299	x1 = 0.3901	x1 = 0.4897	x1 = 0.5988	x1 = 0.719	x1 = 0.852
303 K	2.029	2.002	1.967	1.935	1.902	1.874	1.839	1.809	1.78
308 K	1.87	1.837	1.814	1.783	1.754	1.713	1.679	1.646	1.618
313 K	1.599	1.582	1.567	1.559	1.54	1.52	1.499	1.484	1.47
318 K	1.444	1.439	1.426	1.42	1.407	1.4	1.39	1.381	1.372
323 K	1.324	1.318	1.309	1.301	1.29	1.284	1.274	1.269	1.259

Source: the CheMixHub viscosity set
